Values quoted from earlier work as cited in paper PMC6151961 (Journal of Enzyme Inhibition and Medicinal Chemistry, 2018).
Like-named read-outs stand apart in the source and are kept apart here.

Target: CA IX (Homo sapiens, UniProt Q16790)
Conditions: cited from earlier work; for Ki: read-out: Ki
[1] = library compounds (IDs A…, B…), values equal log10 of Ki in nM, ref ChEMBL and BindingDB
[2] = observed Ki of library compounds (IDs A…, B…), ref ChEMBL and BindingDB
[3] = library compounds (IDs A…, B…), observed Ki towards CA IX, ref ChEMBL and BindingDB
[4] = library compounds (IDs A…, B…) of Table S4, ref ChEMBL and BindingDB
[5] = observed Ki of library compounds (IDs A..., B...), ref ChEMBL, BindingDB
[6] = experimental pKi towards CA IX, library compounds, ref ChEMB database (ID A), BindingDB (ID B)
[7] = observed Ki towards CA IX, library compounds, ref ChEMB database (ID A), BindingDB (ID B)
[8] = library compounds (IDs A..., B...), values equal log10 of Ki in nM, ref ChEMBL, BindingDB

Compound | log10 of Ki in nM [1] | log10 of Ki in nM | Ki [nM] | also measured
COc1cc2c(cc1OC)[C@@H](c1ccc([N+](=O)[O-])cc1)N(S(N)(=O)=O)CC2 [B0740] | 2.681 |  |  | Ki [2]: 480 nM
NS(=O)(=O)c1ccc(-n2cc(CS(=O)(=O)[C@@H]3O[C@@H](CO)[C@H](O)[C@@H](O)[C@H]3O)nn2)cc1 [B0162] |  | 0.908 | 8.1 | 
Cc1ccc(-c2nn(-c3ccc(S(N)(=O)=O)cc3)cc2/C=N/Nc2nc(-c3cc4cc(Cl)ccc4oc3=O)cs2)cc1 [B0318] |  | 1.380 | 24 | 
CC(=O)OC[C@@H]1O[C@H](O[C@@H]2[C@@H](OC(C)=O)[C@H](OC(C)=O)[C@H](n3cc(COC(=O)c4ccc(S(N)(=O)=O)cc4)nn3)O[C@@H]2COC(C)=O)[C@H](OC(C)=O)[C@H](OC(C)=O)[C@H]1OC(C)=O [B0633] |  | 2.114 | 130 | 
CC1C=C(C(C)C)N(Cc2ccc(S(N)(=O)=O)cc2)C(C(C)C)=C1 [B0461] | 1.732 |  |  | Ki [3]: 54 nM
COc1ccc2c(c1)CCN(S(N)(=O)=O)[C@H]2c1ccc(N)cc1 [A0718] | 1.079 |  |  | Ki [4]: 12 nM
CCOc1ccc(S(=O)(=O)NCCO)cc1-c1nnc2c(n1)c(C)nn2-c1ccc(C)cc1 [B0321] |  |  |  | Ki [5]: 25 nM
COc1ccc2c(c1)CCN(S(N)(=O)=O)[C@H]2c1ccc(S(N)(=O)=O)cc1 [A0401] |  | 0.813 | 6.5 | 
CC(=O)OC[C@@H]1O[C@@H](SCc2nnn(-c3ccc(S(N)(=O)=O)cc3)c2I)[C@H](OC(C)=O)[C@@H](OC(C)=O)[C@@H]1OC(C)=O [B0581] |  |  |  | log10 of Ki in nM [6]: 1.978; Ki [7]: 95 nM
NS(=O)(=O)c1ccc(NC2=NC(=O)/C(=C\c3coc4ccccc4c3=O)S2)cc1 [B0247] | 1.146 |  |  | Ki [3]: 14 nM
NS(=O)(=O)c1ccc(CCNc2nc(N[C@@H](CO)C(=O)O)nc(N[C@H](CO)C(=O)O)n2)cc1 [B0192] |  | 0.954 | 9 | 
CCCN(CCC)S(=O)(=O)c1ccc(C(=O)N[C@H](CO)C(N)=O)cc1 [B0020] |  | 0.415 | 2.6 | 
CCO[C@H]1Oc2ccccc2C(=O)[C@@H]1/C=N\c1ccc(S(=O)(=O)Nc2nccs2)cc1 [B0283] | 1.301 |  |  | Ki [4]: 20 nM
CC1(C)CC(NC(=S)Nc2ccc(S(N)(=O)=O)cc2)CC(C)(C)N1O [A1198] | 1.613 |  |  | Ki [3]: 41 nM
CC1=CC(c2ccccc2)C=C(C)N1CCc1ccc(S(N)(=O)=O)cc1 [B0111] | 0.778 |  |  | Ki [2]: 6 nM
NS(=O)(=O)c1ccc([C@H]2C(Oc3ccccc3)=NON2O)cc1 [A1359] | 1.806 |  |  | Ki [3]: 63.9 nM
CC(=O)OC[C@@H]1O[C@H](SNCCc2ccc(S(N)(=O)=O)cc2)[C@@H](OC(C)=O)[C@H](OC(C)=O)[C@@H]1OC(C)=O [B0585] |  | 1.987 | 97 | 
CN1N[C@@H](S(N)(=O)=O)S[C@H]1NC(=O)c1c(F)c(F)c(F)c(F)c1F [B0350] |  |  |  | log10 of Ki in nM [8]: 1.462; Ki [5]: 29 nM
CC1=CC(C)C=C(C)N1CCc1ccccc1-c1ccccc1 [B0751] | 2.851 |  |  | Ki [4]: 710 nM

Compound | log10 of Ki in nM [1] | log10 of Ki in nM | Ki [nM] | also measured
Cc1ccc2nc(S)n(-c3ccc(S(N)(=O)=O)cc3)c(=O)c2c1 [B0260] | 1.204 |  |  | Ki [4]: 16 nM
CC(=O)CN1C(=O)C=C(C)OS1(=O)=O [A2477] | 4.301 |  |  | Ki [3]: 20000 nM
CC(=O)N1N=C(c2ccc(C)cc2)C[C@H]1c1c(C)nn(-c2ccc(S(N)(=O)=O)cc2)c1Cl [A1383] | 1.827 |  |  | Ki [3]: 67.1 nM
NS(=O)(=O)c1ccc(OC2=NON(O)[C@@H]2S(=O)(=O)c2ccccc2)cc1 [A0390] | 0.806 |  |  | Ki [3]: 6.4 nM
CC(=O)OC[C@@H]1O[C@@H](S(=O)(=O)Cc2nnn(-c3ccc(S(N)(=O)=O)cc3)c2I)[C@H](OC(C)=O)[C@@H](OC(C)=O)[C@@H]1OC(C)=O [B0586] |  | 1.987 | 97 | 
NS(=O)(=O)c1ccc(-n2cc(CO[C@H]3O[C@H](CO)[C@H](O[C@H]4O[C@H](CO)[C@@H](O)[C@@H](O)[C@H]4O)[C@@H](O)[C@@H]3O)nn2)cc1 [B0542] |  | 1.924 | 84 | 
Cn1nc(S(N)(=O)=O)s/c1=N/C(=O)c1c(F)c(F)cc(F)c1F [B0221] |  | 1.021 | 10.5 | 
CC[C@@H](Sc1nc(-c2cccc(OC)c2)c(C#N)c(=O)[nH]1)C(=O)Nc1ccc(S(N)(=O)=O)cc1 [A0953] | 1.380 |  |  | Ki [2]: 24 nM
COc1ccc2c(c1)CCN(S(N)(=O)=O)[C@H]2c1ccc(C#N)cc1 [A0427] | 0.845 |  |  | Ki [4]: 7 nM
COc1ccc(/C=C\C(=O)C[C@H]2O[C@H](COC(C)=O)[C@@H](OC(C)=O)[C@@H](OC(C)=O)[C@@H]2OC(C)=O)cc1OC [B0756] | 2.877 |  |  | Ki [3]: 753 nM
CCCN(CCC)S(=O)(=O)c1ccc(C(=O)N[C@H](C)C(N)=O)cc1 [B0254, reference compound] |  |  |  | Ki (CA IX, library ligands, ref ChEMBL[43] and BindingDB[44]): 15 nM; log10 of Ki in nM (CA IX, observed value, equals log of Ki in nM, ref ChEMBL[43] and BindingDB[44]): 1.176
COc1ccc(-c2nn(-c3ccc(S(N)(=O)=O)cc3)cc2/C=N/Nc2nc(-c3cc4cc(Br)ccc4oc3=O)cs2)cc1 [B0286] | 1.301 |  |  | Ki [3]: 20 nM
CC/C(=N/Nc1ccc([N+](=O)[O-])cc1)Sc1cc(Cl)c(C)cc1S(N)(=O)=O [A2453] | 4.000 |  |  | Ki [3]: 10000 nM
CCOc1ccc2c(c1)CCN(S(N)(=O)=O)[C@H]2c1ccc(S(N)(=O)=O)cc1 [A1289] |  | 1.717 | 52.1 | 
Cc1ccc(-c2cnc(C(=O)N3CCCC3)o2)cc1S(N)(=O)=O [B0431] |  |  |  | Ki [5]: 43 nM
Cc1cc(C)c2nc(S)n(-c3ccc(S(N)(=O)=O)cc3)c(=O)c2c1 [B0272] |  |  |  | log10 of Ki in nM [8]: 1.255; Ki [5]: 18 nM
CCCN(CCC)S(=O)(=O)c1ccc(C(=O)N[C@H](CO)C(=O)O)cc1 [B0340] |  |  |  | log10 of Ki in nM [6]: 1.431; Ki [7]: 27 nM
Cc1cc(C)o/c(=N\O)c1 [B0259] |  |  |  | log10 of Ki in nM [8]: 1.204; Ki [5]: 16 nM
NS(=O)(=O)c1ccc(CCN2C(c3ccccc3)=CCC=C2c2ccccc2)cc1 [B0533] |  |  |  | log10 of Ki in nM [6]: 1.908; Ki [7]: 81 nM

Compound | log10 of Ki in nM [1] | log10 of Ki in nM | Ki [nM] | also measured
NS(=O)(=O)c1cc(-c2nnc(-c3ccccc3)s2)c(Cl)cc1Cl [B0246] | 1.146 |  |  | Ki [3]: 14 nM
CC1(C)O[C@H]2[C@H](CO[C@]3(CNC(=S)Nc4ccc(S(N)(=O)=O)cc4)OC(C)(C)O[C@H]23)O1 [B0536] |  | 1.914 | 82 | 
CC(=O)OC[C@@H]1O[C@@H](SCc2cn(-c3ccc(S(N)(=O)=O)cc3)nn2)[C@H](OC(C)=O)[C@@H](OC(C)=O)[C@@H]1OC(C)=O [B0180] |  | 0.934 | 8.6 | 
CC(=O)OC[C@@H]1O[C@H](NS(=O)(=O)NO)C=C[C@H]1OC(C)=O [B0526] |  | 1.898 | 79 | 
C[C@H](Nc1nc(NCc2ccc(S(N)(=O)=O)cc2)nc(N[C@@H](C)C(=O)O)n1)C(=O)O [B0173] |  | 0.929 | 8.5 | 
Cc1cc(=O)oc2cc(O[C@H]3O[C@@H](C)[C@H](O)[C@H](O)[C@H]3O)ccc12 [B0671] |  | 2.303 | 201 | 
CC(=O)OC[C@@H]1O[C@@H](NS(N)(=O)=O)CC[C@H]1OC(C)=O [B0190] | 0.954 |  |  | Ki [2]: 9 nM
CC(=O)Nc1ccc(S(=O)(=O)NC[C@H](C)F)cc1 [B0810] |  |  |  | log10 of Ki in nM [6]: 3.643; Ki [7]: 4400 nM
CC1(C)O[C@@H]2O[C@H]([C@@H]3COC(C)(C)O3)[C@@H](OS(N)(=O)=O)[C@@H]2O1 [B0417] |  | 1.591 | 39 | 
NS(=O)(=O)c1ccc(N2C(=O)CS[C@@H]2c2cccc(F)c2)cc1 [A1295] | 1.725 |  |  | Ki [3]: 53.1 nM
CC(=O)OC[C@@H]1O[C@H](S(=O)(=O)Cc2cn(-c3ccc(S(N)(=O)=O)cc3)nn2)[C@@H](OC(C)=O)[C@H](OC(C)=O)[C@H]1OC(C)=O [B0149] |  | 0.875 | 7.5 | 
N#C/C(=C/C=C\c1ccccc1)C(=O)Nc1ccc(S(N)(=O)=O)cc1 [B0085] |  |  |  | log10 of Ki in nM [8]: 0.690; Ki [5]: 4.9 nM
NS(=O)(=O)c1ccc([C@H]2c3ccc(O)cc3CCN2S(N)(=O)=O)cc1 [A0504, reference compound] |  | 0.898 | 7.9 | 
CC1=C[C@H](c2ccccc2)C=C(c2ccccc2)N1c1ccc(S(=O)(=O)Nc2nnc(S(N)(=O)=O)s2)cc1 [B0314] | 1.380 |  |  | Ki [2]: 24 nM
NS(=O)(=O)c1ccc(-c2cn([C@@H]3O[C@@H](CO)[C@H](O)[C@@H]3O)nn2)cc1 [B0623] |  | 2.083 | 121 | 
CCCN(CCC)S(=O)(=O)c1ccc(C(=O)N[C@H](CS)C(N)=O)cc1 [B0344] | 1.447 |  |  | Ki [4]: 28 nM
CC1(C)O[C@H]2[C@H](CO[C@]3(CNC(=S)Nc4ccc(S(N)(=O)=O)cc4F)OC(C)(C)O[C@H]23)O1 [B0608] |  | 2.041 | 110 | 
CC(=O)OC[C@H]1O[C@@H](n2cc(-c3ccc(S(N)(=O)=O)cc3)nn2)[C@@H](OC(C)=O)[C@@H](OC(C)=O)[C@@H]1OC(C)=O [B0096] |  | 0.699 | 5 | 
NS(=O)(=O)c1ccc(CNC(=S)Nc2ccc(C3c4ccc(O)cc4Oc4cc(O)ccc43)c(C(=O)O)c2)cc1 [B0334] | 1.415 |  |  | Ki [3]: 26 nM
